What all share (format): cell-based
For one assay, the target named is T1, endogenous BCL-xL (Homo sapiens, UniProt Q07817).
T1 construct: endogenous in cells; host or cells: COR-L105 (ECACC No. 92031918); NCI-H1650 (ATCC No. CRL-5883)
The experiment in a line: Degradation of endogenous BCL-xL in COR-L105 (ProteinSimple Jess). The settings on record: COR-L105, 24 h, COR-L105, dose 300 nM, read-out: % BCL-xL vs. Untreated, COR-L105. The procedure:
The BCL-xL degrader low molecular weight compounds were tested against two endogenous cancer cell lines: • COR-L105: ECACC No. 92031918 cultured in RPMI-1640+10% FBS • NCI-H1650: (ATCC No. CRL-5883 cultured in RPMI-1640+10% FBS
The ability of the BCL-xL degrader low molecular weight compounds to degrade endogenous BCL-xL was assessed using the ProteinSimple 2-40 kDa Jess Separation Module.
Cell lines were cultured in media that is optimal for their growth at 5% CO2, 37° C. in a tissue culture incubator. Prior to seeding for the degradation assay, the cells were split at least 2 days before the assay to ensure optimal growth density. On the day of seeding, adherent cells were lifted off tissue culture flasks using 0.25% trypsin. Cell viability and cell density were determined using a cell counter (Vi-Cell XR Cell Viability Analyzer, Beckman Coulter). Cells with higher than 85% viability were seeded for the assay.
The COR-L105 and the NCI-H1650 cell line were seeded in 6-well clear TC-treated multiple well plates (Costar® cat. #3516). Cells were seeded at a density of 2,000,000 cells per well in 2.5 mL of standard growth media. Plates were incubated at 5% CO2, 37° C. overnight in a tissue culture incubator. On the day of dosing, BCL-xL degrader low molecular weight compounds and a BCL-xL inhibitor control were prepared at 6× in standard growth media. The prepared drug treatments were then added to the cells resulting in a final concentration of 100-300 nM and a final volume of 3.0 mL per well. A control well of untreated cells was also included in the study. Each drug concentration was tested in singlet. Plates were incubated at 5% CO2, 37° C. for 24 hours in a tissue culture incubator.
After 24 hours, the adherent cells were lifted off tissue culture plates using 0.25% trypsin. Standard growth media was added to quench the trypsin and centrifuged for 5 minutes at 1500 rpm. Cell pellets were washed once with cold PBS and centrifuged for 5 minutes at 1500 rpm. Cells were then washed with 1 mL cold PBS and transferred to a 1.5 mL eppendorf tube. Cells were centrifuged for 10 minutes at ≥10,000 g at 4° C. in a benchtop mini-centrifuge. The entire supernatant was discarded and cells were resuspended thoroughly in 50 μL of RIPA lysis buffer, generated by the manufacturer's protocol (ProteinSimple, Cat. #CBS401: Lysis Kit—RIPA Buffer for Charge Assays). Lysates were incubated on ice for 30 minutes. Following incubation, lysates were spun in a benchtop mini-centrifuge for 15 minutes at full speed at 4° C. Supernatant was carefully transferred to a new eppendorf tube for downstream analysis.
Protein was quantified using a Pierce™ BCA Protein Assay Kit (ThermoFisher, cat #23225) following the manufacturer's instructions. A standard curve was prepared by adding 25 μL of each concentration of reference samples from a Pierce™ Bovine Serum Albumin Standard Pre-Diluted Set (ThermoFisher, cat #23208). Each reference sample was run in duplicate. Testing samples were prepared by diluting cell lysates 1:5 in UltraPure™ DNase/RNase-Free Distilled Water and tested in duplicates of 25 μL each. The BCA working reagent was prepared by addition of 50 parts of BCA Reagent A with 1 part of BCA Reagent B. For each testing well, 200 μL of BCA working reagent was added. The plate was incubated at 37° C. for 30 minutes. A SpectraMax M Series Multi-Mode Microplate Reader was used to measure the absorbance at 562 nm. A standard curve generated by the Pierce™ Bovine Serum Albumin Standard Pre-Diluted Set was used to normalize and calculate the BCA concentration of cell lysates. Only values that fell within the range of the standard curve were accepted for quantification.
The ProteinSimple 2-40 kDa Jess Separation Module was used to detect BCL-xL degradation in treated versus untreated lysates following the manufacturer's instructions (25-Capillary Cartridge, 8 pack, 2-40 kDa, cat #SM W012). […]

A further assay has as its system COR-L105. Briefly: CellTiter-Glo proliferation assay, COR-L105. The settings on record: Homo sapiens, COR-L105, 120 h, COR-L105, 5 days; for Emax: read-out: COR-L105 Span (max). The method, boiled down: (§1)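 Both lines grown in RPMI-1640 + 10% FBS. COR-L105 plated flat at 1,000 cells/well overnight; NCI-H1650 grown as spheroids, 3,000 cells/well, 72 h. Compounds at 0.508 nM-10 μM final for 5 days, 37° C. ATP read by CellTiter-Glo (3D version for spheroids); IC50 from variable-slope fit normalized to untreated cells.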
A general note: Cellular ATP, detected with luciferase, serves as a proxy for viable cell number.

The test system of a further assay is NCI-H1650. Briefly: CellTiter-Glo 3D proliferation assay, NCI-H1650 spheroids. The settings on record: Homo sapiens, NCI-H1650, 120 h, 5 days; for Emax: read-out: NCI-H1650 Span (Amax). The method, boiled down: as §1

SMILES strings stand for the structures. A value given as a limit tells only on which side of the number the result lay.

T1 sequence (Q07817 whole entry): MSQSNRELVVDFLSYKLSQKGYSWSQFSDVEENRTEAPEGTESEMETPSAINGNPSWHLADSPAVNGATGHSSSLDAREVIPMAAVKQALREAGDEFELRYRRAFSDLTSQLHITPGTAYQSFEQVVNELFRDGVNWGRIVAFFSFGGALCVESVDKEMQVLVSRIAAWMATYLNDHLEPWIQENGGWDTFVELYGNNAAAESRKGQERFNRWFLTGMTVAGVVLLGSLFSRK

As usually defined, the IC50 is the point on the concentration scale where inhibition reaches its midpoint. With `Cc1ncsc1-c1ccc(CNC(=O)[C@@H]2C[C@@H](O)CN2C(=O)[C@@H](NC(=O)C2(F)CC2)C(C)(C)C)c(OCC(=O)NCCCCCN2CCN(CC#Cc3ccc(OCCCc4sc(N5CCCc6c5nnc(Nc5nc7ccccc7s5)c6C)nc4C(=O)O)c(F)c3)CC2)c1` [Example 53, 2-(3-(benzo[d]thiazol-2-ylamino)-4-methyl-6,7-dihydropyrido [2,3-c]pyridazin-8(5H)-yl)-5-(3-(2-fluoro-4-(3-(4-(5-(2-(2-(((2S,4R)-1-((S)-2-(1-fluorocyclopropane-1-carboxamido)-3,3-dimethylbutanoyl)-4-hydroxypyrrolidine-2-carboxamido)methyl)-5-(4-methylthiazol-5-yl)phenoxy)acetamido)pentyl)piperazin-1-yl)prop-1-yn-1-yl)phenoxy)propyl)thiazole-4-carboxylic acid], on endogenous BCL-xL, the remaining activity at 0.3 µM is 48.3%. Besides, in the assay on COR-L105, it took 33.4 nM to reach half-maximal inhibition (IC50) and the Emax came out at 97.9%. In the assay with NCI-H1650, the IC50 is 4.46 nM and the Emax amounted to 79.3%.
On to `Cc1ncsc1-c1ccc([C@H](C)NC(=O)[C@@H]2C[C@@H](O)CN2C(=O)[C@@H](NC(=O)CCC(=O)N2CCN(CCOC34CC5(C)CC(C)(CC(Cn6ncc(-c7ccc(N8CCCc9c8nnc(Nc8nc%10ccccc%10s8)c9C)nc7C(=O)O)c6C)(C5)C3)C4)CC2)C(C)(C)C)cc1` [Example 49, 6-(3-(benzo[d]thiazol-2-ylamino)-4-methyl-6,7-dihydropyrido [2,3-c]pyridazin-8(5H)-yl)-3-(1-(((1r,3s,5R,7S)-3-(2-(4-(4-(((S)-1-((2S,4R)-4-hydroxy-2-(((S)-1-(4-(4-methylthiazol-5-yl)phenyl)ethyl)carbamoyl)pyrrolidin-1-yl)-3,3-dimethyl-1-oxobutan-2-yl)amino)-4-oxobutanoyl)piperazin-1-yl)ethoxy)-5,7-dimethyladamantan-1-yl)methyl)-5-methyl-1H-pyrazol-4-yl)picolinic acid], for which, on endogenous BCL-xL, the remaining activity at 0.3 µM was above 90%. In the assay with COR-L105, the IC50 worked out at 311 nM and the Emax was 92.1%. Moreover, in the assay with NCI-H1650, the IC50 worked out at 44.1 nM and the Emax worked out at 89%.
For the compound `Cc1ncsc1-c1ccc(CNC(=O)[C@@H]2C[C@@H](O)CN2C(=O)[C@@H](NC(=O)COCCOCCOCC(=O)N2CCN(CC#Cc3ccc(OCCCc4sc(N5CCCc6c5nnc(Nc5nc7ccccc7s5)c6C)nc4C(=O)O)c(F)c3)CC2)C(C)(C)C)cc1` [Example 40, 2-(3-(benzo[d]thiazol-2-ylamino)-4-methyl-6,7-dihydropyrido [2,3-c]pyridazin-8(5H)-yl)-5-(3-(2-fluoro-4-(3-(4-((S)-13-((2S,4R)-4-hydroxy-2-((4-(4-methylthiazol-5-yl)benzyl)carbamoyl)pyrrolidine-1-carbonyl)-14,14-dimethyl-11-oxo-3,6,9-trioxa-12-azapentadecanoyl)piperazin-1-yl)prop-1-yn-1-yl)phenoxy)propyl)thiazole-4-carboxylic acid], on endogenous BCL-xL, the remaining activity at 0.3 µM came to 71.4%. Besides, in the assay with COR-L105, the half-inhibitory concentration (IC50) stood at 107 nM and the Emax was 82.1%. Besides, in the assay with NCI-H1650, the IC50 is 15.6 nM and the Emax turned out to be 87.3%.
Consider `Cc1ncsc1-c1ccc([C@H](C)NC(=O)[C@@H]2C[C@@H](O)CN2C(=O)[C@@H](NC(=O)CCCCCCCCN2CCN(CC#Cc3ccc(OCCCc4sc(N5CCCc6c5nnc(Nc5nc7ccccc7s5)c6C)nc4C(=O)O)c(F)c3)CC2)C(C)(C)C)cc1` [Example 52, 2-(3-(benzo[d]thiazol-2-ylamino)-4-methyl-6,7-dihydropyrido [2,3-c]pyridazin-8(5H)-yl)-5-(3-(2-fluoro-4-(3-(4-(9-(((S)-1-((2S,4R)-4-hydroxy-2-(((S)-1-(4-(4-methylthiazol-5-yl)phenyl)ethyl)carbamoyl)pyrrolidin-1-yl)-3,3-dimethyl-1-oxobutan-2-yl)amino)-9-oxononyl)piperazin-1-yl)prop-1-yn-1-yl)phenoxy)propyl)thiazole-4-carboxylic acid], for which, at endogenous BCL-xL, the remaining activity at 0.3 µM amounted to 28.6%. In addition, in the assay on COR-L105, the IC50 worked out at 9.93 nM and the Emax came to 80.6%. Also, in the assay on NCI-H1650, the IC50 was 2.82 nM and the Emax was 60.8%.
Take `Cc1ncsc1-c1ccc([C@H](C)NC(=O)[C@@H]2C[C@@H](O)CN2C(=O)[C@@H](NC(=O)CCCCCCCC(=O)N2CCN(CC#Cc3ccc(OCCCc4sc(N5CCCc6c5nnc(Nc5nc7ccccc7s5)c6C)nc4C(=O)O)c(F)c3)CC2)C(C)(C)C)cc1` [Example 38, 2-(3-(benzo[d]thiazol-2-ylamino)-4-methyl-6,7-dihydropyrido [2,3-c]pyridazin-8(5H)-yl)-5-(3-(2-fluoro-4-(3-(4-(9-(((S)-1-((2S,4R)-4-hydroxy-2-(((S)-1-(4-(4-methylthiazol-5-yl)phenyl)ethyl)carbamoyl)pyrrolidin-1-yl)-3,3-dimethyl-1-oxobutan-2-yl)amino)-9-oxononanoyl)piperazin-1-yl)prop-1-yn-1-yl)phenoxy)propyl)thiazole-4-carboxylic acid]: the remaining activity at 0.3 µM on endogenous BCL-xL was found to be 22.1%. In addition, in the assay on COR-L105, the IC50 turned out to be 83.1 nM and the Emax is 87.4%. Besides, in the assay with NCI-H1650, 8.15 nM corresponded to half-maximal inhibition (IC50) and the Emax is 87.9%.

For the origin of these results see patent US20240376094A2, “SELECTIVE BCL-XL PROTAC COMPOUNDS AND METHODS OF USE” (Les Laboratoires Servier, priority 2021, published 2024).
